Measured values reported in patent US20040176339A1, “Antineoplastic combinations” (Wyeth, priority 2003, published 2004).

What was measured:
[1] = tested on: histologically diverse tumor cells; settings: cited from earlier work
[2] = tested on: human glioblastoma cell line; settings: in vitro; cited from earlier work
[3] = Clinical trial of CCI-779 plus letrozole: safety/tolerability
Method: (§1) The combination of CCI-779 and letrozole in postmenopausal women with locally advanced or metastatic breast cancer is being evaluated in this clinical trial.
(§2) Randomization is in a 1:1:1 ratio (˜30 evaluable pts/arm), letrozole alone: letrozole with CCI daily (CCI daily arm): letrozole with CCI daily for 5 days every 2 weeks (CCI intermittent arm). All pts receive 2.5 mg letrozole daily.
(§3) Thus, the protocol was amended and doses were reduced to low dose (LD) schedules, 10 mg CCI daily and 30 mg CCI intermittent. As of 1 Dec.

[4] = Stability of CCI-779 in parenteral cosolvent formulation; format: physicochemical; settings: citric acid at a concentration of less than 0.01% w/v
Description: In this embodiment, the stability of CCI-779 in parenterally acceptable alcoholic cosolvents is enhanced by addition of an antioxidant to the formulation. Acceptable antioxidants include, but are not limited to, citric acid, d,l-α-tocopherol, BHA, BHT, monothioglycerol, ascorbic acid, propyl gallate, and mixtures thereof. Generally, the parenteral formulations useful in this embodiment of the invention will contain an antioxidant component(s) in a concentration ranging from 0.001% to 1% w/v, or 0.01% to 0.5% w/v, of the cosolvent concentrate, although lower or higher concentrations may be desired. Of the antioxidants, d,l-α-tocopherol is particularly desirable and is used at a concentration of 0.01 to 0.1% w/v with a preferred concentration of 0.075% w/v of the cosolvent concentrate.
Examples of such chelating agents include, e.g., citric acid, acetic acid, and ascorbic acid (which may function as both a classic antioxidant and a chelating agent in the present formulations). Other chelating agents include such materials as are capable of binding metal ions in solution, such as ethylene diamine tetra acetic acid (EDTA), its salts, or amino acids such as glycine are capable of enhancing the stability of CCI-779. […] Optimal concentrations for the selected antioxidant(s) can be readily determined by one of skill in the art, based upon the information provided herein.

[5] = tested on: locally advanced or metastatic breast cancer; assay: Clinical trial of CCI-779 plus letrozole: preliminary tumor responses (RECIST); format: in vivo, postmenopausal women; settings: for pts with SD 24 wk: CCI pts on HD schedules, letrozole-alone pts; for partial responses (RECIST): evaluable pts: CCI n=13 (responders on HD schedules), letrozole alone n=6; for stable disease (RECIST): evaluable pts: CCI n=13, letrozole alone n=6
Method: as §1, §2, §3

human tumor xenografts = settings: nude mice, cited from earlier work

Structure (SMILES) | growth of tumor cells in vitro ([1]; CNS cancer, leukemia (T-cell), breast cancer, prostate cancer and melanoma lines among the most sensitive) | cell cycle effect ([1]; in vitro tumor cells) | growth factor (platelet-derived)-induced stimulation of glioblastoma cells [2] | patients with toxicity that resulted in dose delay/reduction or discontinuation ([3]; female, human, in vivo) | stability of CCI-779 in formulation [4] | stable disease, pts on HD schedules ([5]; CCI HD schedules (25 mg daily / 75 mg intermittent) with letrozole) | stable disease, pts on LD schedules ([5]; CCI LD schedules (10 mg daily / 30 mg intermittent) with letrozole) | pts with SD 24 wk [5] | complete response (RECIST) ([5]; evaluable CCI pts n=13, responder on HD schedule) | partial responses (RECIST) [5] | stable disease (RECIST) [5] | activity in orthotopic glioma model (human tumor xenografts) | activity against human tumor xenografts (human tumor xenografts; diverse histological types, gliomas particularly sensitive) | growth of human pancreatic tumors and breast cancer lines in vivo (human tumor xenografts; several human pancreatic tumors, one of two breast cancer lines) | grade 3-4 toxicities ([3]; letrozole alone 2.5 mg daily, 12 pts)
CO[C@H]1C[C@@H]2CC[C@@H](C)[C@@](O)(O2)C(=O)C(=O)N2CCCC[C@H]2C(=O)O[C@H]([C@H](C)C[C@@H]2CC[C@@H](OC(=O)C(C)(CO)CO)[C@H](OC)C2)CC(=O)[C@H](C)/C=C(\C)[C@@H](O)[C@@H](OC)C(=O)[C@H](C)C[C@H](C)/C=C/C=C/C=C/1C [CCI-779, Rapamycin 42-ester with 3-hydroxy-2-(hydroxymethyl)-2-methylpropionic acid] | inhibit the growth | arrested cells in the G1 phase | markedly suppressed | 3 patients | enhanced the stability | 6 pts | 3 pts | 4 pts | 1 pts | 3 pts | 9 pts | active | has activity against human tumor xenografts | inhibited | 
N#Cc1ccc(C(c2ccc(C#N)cc2)n2cncn2)cc1 [letrozole, reference compound] |  |  |  |  |  |  |  | 1 pts |  | 2 pts | 4 pts |  |  |  | No grade 3-4 toxicities
